Data as given in publication PMC6494997, “Studies on Isoniazid Derivatives through a Medicinal Chemistry Approach for the Identification of New Inhibitors of Urease and Inflammatory Markers” (Scientific Reports, 2019).
In brackets after ≈: the same amount, converted by molar mass. Where two headings read alike, the source gives them in different places.

Columns and labels:
urease [1] = molecular target: T1, urease (Canavalia ensiformis, UniProt P07374); settings: reported literature value of the standard; read-out: Urease Inhibition Activity IC50 ± SEM (Reported) (converted); cited from earlier work
T1 sequence (P07374 whole entry, looked up): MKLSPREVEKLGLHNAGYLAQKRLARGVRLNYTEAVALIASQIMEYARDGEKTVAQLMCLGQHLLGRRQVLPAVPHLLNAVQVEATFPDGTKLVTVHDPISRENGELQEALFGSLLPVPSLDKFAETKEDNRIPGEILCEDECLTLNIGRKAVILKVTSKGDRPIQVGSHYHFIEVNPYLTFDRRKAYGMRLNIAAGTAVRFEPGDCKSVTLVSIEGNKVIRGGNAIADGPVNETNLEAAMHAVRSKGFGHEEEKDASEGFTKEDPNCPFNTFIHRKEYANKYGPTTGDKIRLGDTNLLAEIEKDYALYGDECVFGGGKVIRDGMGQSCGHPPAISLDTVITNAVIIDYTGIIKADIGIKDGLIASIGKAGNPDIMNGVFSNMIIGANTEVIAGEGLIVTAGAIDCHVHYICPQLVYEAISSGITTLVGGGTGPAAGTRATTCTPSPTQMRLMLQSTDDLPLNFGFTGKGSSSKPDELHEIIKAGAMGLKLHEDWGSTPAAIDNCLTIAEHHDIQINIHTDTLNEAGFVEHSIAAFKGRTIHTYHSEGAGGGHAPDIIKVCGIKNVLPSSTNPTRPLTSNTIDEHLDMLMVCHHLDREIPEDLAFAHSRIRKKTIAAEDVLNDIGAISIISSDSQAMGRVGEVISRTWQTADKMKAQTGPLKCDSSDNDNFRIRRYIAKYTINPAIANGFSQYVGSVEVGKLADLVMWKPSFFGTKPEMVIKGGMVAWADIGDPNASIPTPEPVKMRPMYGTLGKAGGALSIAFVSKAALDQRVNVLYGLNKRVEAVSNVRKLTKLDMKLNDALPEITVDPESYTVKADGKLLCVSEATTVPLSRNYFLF

urease [2] = molecular target: T1, urease; experiment: biochemical
Method: During the experiments all the compounds were evaluated at 0.5 mM each in triplicate.

in vitro = settings: mouse
Method: (§1) In this experiment all the compounds were evaluated at 30 µM each in triplicate.

[3] = system: ROS from zymosan activated whole blood cells; experiment: Oxidative burst assay (in vitro anti-inflammatory, ROS inhibition); assay type: cell-based, human; settings: for Anti-Inflammatory Activity IC50 ± SD: observed, ROS inhibition, zymosan activated whole blood cells, screening concentration 25 µg/mL, <50% inhibition = inactive; for IC50: Homo sapiens, Whole blood cell, read-out: Anti-Inflammatory Activity IC50 ± SD
Method: In this experiment all the compounds were evaluated at 25 µg/mL, each in triplicate.
All studies on human blood cells was carried out after an approval from independent ethics committee (Prof. Dr. Ghazala H. Rizwani Chair, IEC, Prof. Qamar Amin, Prof, Dr. Muddasir Uddin, Dr. Shahnaz Ghazi, Dr. SamiuzZaman, Prof. Dr. Ahsana Dar Farooq, Dr. M. Raza Shah member IEC), International Center for Chemical and Biological Sciences, University of Karachi, No: ICCBS/IEC-008-BC-2015/Protocol/1.0. Informed consents were obtained from the volunteers before drawing the blood. All the experiments were performed in accordance with relevant guidelines and regulations.

[4] = system: 3T3 normal (mouse fibroblast) cell line; experiment: 3T3 cytotoxicity assay (MTT); settings: read-out: Cytotoxicity (3T3 Cell line) IC50 ± SD; observed; screened at 30 µM; <50% inhibition at 30 µM = inactive
Method: as §1

[5] = system: 3T3 normal (mouse fibroblast) cell line
Method: as §1

[6] = system: ROS from zymosan activated whole blood cells; set-up: method as in PMID 6178787, PMID 28202019; settings: reported literature value of the standard; cited from earlier work
[7] = 3T3 cytotoxicity assay (MTT); settings: mouse
Method: as §1

[8] = observed, screening concentration 0.5 mM, <50% inhibition = inactive, Insoluble = partially soluble in HPLC methanol of the protocol, read-out: Urease Inhibition Activity IC50 ± SEM
[9] = observed, screening concentration 0.5 mM, <50% inhibition = inactive, Insoluble = partially soluble in HPLC methanol of the protocol

Row | SMILES | melting point [°C] | IC50 (in vitro) [µM] | Anti-Inflammatory Activity IC50 ± SD [3] | IC50 (urease [2]) [µM] | further results
1 | CC(=O)NO [Aetohydaoxamic acid, acetohydroxamic acid, reference compound] | – | – | – | – | IC50 (urease [1]): 17.2 µM; IC50 (urease [2]; [8]): 20.3 ± 0.4 µM
2 | O=C(NNC(=S)Nc1ccccc1F)c1ccncc1 [Compound 3, N-(2-Fluorophenyl)-2-isonicotinoylhydrazinecarbothioamide] | 241 to 242 | > 30 | Inactive | – | Urease Inhibition Activity IC50 ± SEM (urease [2]; [9]): Inactive^c
3 | O=C(NNC(=S)Nc1cccc(Cl)c1Cl)c1ccncc1 [Compound 4, N-(2,3-Dichlorophenyl)-2-isonicotinoylhydrazinecarbothioamide] | 198 to 199 | > 30 | Inactive | 38.8 ± 0.35 | –
4 | O=C(NNC(=S)Nc1cc(Cl)ccc1Cl)c1ccncc1 [Compound 5, N-(2,5-Dichlorophenyl)-2-isonicotinoylhydrazinecarbothioamide] | 172 to 173 | > 30 | – | 36.5 ± 0.14 | IC50 [3]: 18.5 ± 1 µg/mL (≈ 54.2 µM)
5 | O=C(NNC(=S)Nc1c(Cl)cccc1Cl)c1ccncc1 [Compound 6, N-(2,6-Dichlorophenyl)-2-isonicotinoylhydrazinecarbothioamide] | 127 to 128 | > 30 | Inactive | – | Urease Inhibition Activity IC50 ± SEM (urease [2]; [9]): Insoluble
6 | O=C(NNC(=S)Nc1c(F)cccc1F)c1ccncc1 [Compound 7, N-(2,6-Difluorophenyl)-2-isonicotinoylhydrazinecarbothioamide] | 248 to 249 | > 30 | Inactive | 46.3 ± 0.43 | –
7 | O=C(NNC(=S)Nc1cc(C(F)(F)F)ccc1Cl)c1ccncc1 [Compound 8, N-(2-Chloro-5-(trifluoromethyl)phenyl)-2-isonicotinoylhydrazinecarbothioamide] | 183 to 184 | > 30 | Inactive | 44.4 ± 0.43 | –
8 | O=C(NNC(=S)Nc1ccc(Cl)c(C(F)(F)F)c1)c1ccncc1 [Compound 9, N-(4-Chloro-3-(trifluoromethyl)phenyl)-2 isonicotinoylhydrazinecarbothioamide] | 231 to 232 | > 30 | – | 14.2 ± 1.38 | IC50 [3]: 26.7 ± 2.5 µg/mL (≈ 71.2 µM)
9 | N#Cc1ccc(NC(=S)NNC(=O)c2ccncc2)cc1 [Compound 10, N-(4-Cyanophenyl)-2-isonicotinoylhydrazinecarbothioamide] | 162 to 163 | > 30 | Inactive | 15.7 ± 1.32 | –
10 | O=C(NNC(=S)Nc1ccc(OC(F)(F)F)cc1)c1ccncc1 [Compound 11, 2-Isonicotinoyl-N-(4-(trifluoromethoxy)phenyl) hydrazine carbothioamide] | – | – | Inactive | – | IC50 [4]: > 30 µM; IC50 (urease [2]; [8]): 13.2 ± 1.64 µM
11 | O=C(NNC(=S)Nc1c(F)c(F)c(F)c(F)c1F)c1ccncc1 [Compound 12, 2-Isonicotinoyl-N-(perfluorophenyl) hydrazinecarbothioamide] | – | – | 27.7 ± 2.4 µg/mL | – | IC50 (urease [2]; [8]): 12.3 ± 1.04 µM; IC50 [5]: > 30 µM
12 | O=C(NNC(=S)NC1CCCC1)c1ccncc1 [Compound 13, N-Cyclopentyl-2-isonicotinoylhydrazinecarbothioamide] | 223 to 224 | > 30 | Inactive | 13.6 ± 1.61 | –
13 | O=C(NNC(=S)Nc1ccccc1Br)c1ccncc1 [Compound 14, N-(2-Bromophenyl)-2-isonicotinoylhydrazinecarbothioamide] | 156 to 157 | > 30 | Inactive | 35.8 ± 1.89 | –
14 | O=C(NNC(=S)Nc1ccc(F)cc1F)c1ccncc1 [Compound 15, N-(2,4-Difluorophenyl)-2-isonicotinoylhydrazinecarbothioamide] | 191 to 192 | > 30 | Inactive | 34.1 ± 0.45 | –
15 | O=C(NNC(=S)Nc1cccc(F)c1)c1ccncc1 [Compound 16, N-(3-Fluorophenyl)-2-isonicotinoylhydrazinecarbothioamide] | 174 to 175 | > 30 | – | 21.5 ± 1.3 | IC50 [3]: 29.7 ± 1.7 µg/mL (≈ 102 µM)
16 | O=C(NNC(=S)Nc1cccc(I)c1)c1ccncc1 [Compound 17, N-(3-Iodophenyl)-2-isonicotinoylhydrazinecarbothioamide] | 192 to 193 | > 30 | – | 14.7 ± 1.01 | IC50 [3]: 36.9 ± 3 µg/mL (≈ 92.7 µM)
17 | O=C(NNC(=S)Nc1ccc(Cl)cc1)c1ccncc1 [Compound 18, N-(4-Chlorophenyl)-2-isonicotinoylhydrazine carbothioamide] | – | 29.5 ± 1.9 | Inactive | 26.3 ± 1.59 | –
18 | O=C(NNC(=S)Nc1ccc(F)cc1)c1ccncc1 [Compound 19, N-(4-Fluorophenyl)-2-isonicotinoylhydrazinecarbothioamide] | 191 to 192 | > 30 | Inactive | 12.7 ± 0.8 | –
19 | COc1ccc(NC(=S)NNC(=O)c2ccncc2)cc1 [Compound 20, 2-Isonicotinoyl-N-(4-methoxyphenyl) hydrazinecarbothioamide] | – | – | Inactive | – | IC50 (urease [2]; [8]): 22 ± 1.15 µM; IC50 [5]: > 30 µM
20 | O=C(NNC(=S)Nc1cc(Cl)c(Cl)cc1Cl)c1ccncc1 [Compound 21, Isonicotinoyl-N-(2,4,5-trichlorophenyl) hydrazinecarbothioamide] | – | – | Inactive | – | IC50 (urease [2]; [8]): 28.2 ± 1.48 µM; IC50 [5]: > 30 µM
21 | O=C(NNC(=S)Nc1cccc(Br)c1)c1ccncc1 [Compound 22, N-(3-Bromophenyl)-2-isonicotinoylhydrazinecarbothioamide] | 192 to 193 | > 30 | – | 22.1 ± 1.91 | IC50 [3]: 25.1 ± 0.4 µg/mL (≈ 71.5 µM)
22 | O=C(NNC(=S)NC1CCCCC1)c1ccncc1 [Compound 23, N-Cyclohexyl-2-isonicotinoylhydrazinecarbothioamide] | 212 to 213 | > 30 | – | 22.4 ± 1.83 | IC50 [3]: 12.3 ± 1.2 µg/mL (≈ 44.2 µM)
23 | O=C(NNC(=S)Nc1ccccc1)c1ccncc1 [Compound 24, 2-Isonicotinoyl-N-phenylhydrazinecarbothioamide] | – | > 30 | Inactive | 63.2 ± 2 | –
24 | CCCCCCNC(=S)NNC(=O)c1ccncc1 [Compound 25, N-Hexyl-2-isonicotinoylhydrazinecarbothioamide] | 215 to 216 | > 30 | Inactive | – | Urease Inhibition Activity IC50 ± SEM (urease [2]; [9]): Insoluble
25 | O=C(NNC(=S)Nc1cccc(N=C=S)c1)c1ccncc1 [Compound 26] | 195 to 196 | – | – | – | –
26 | O=C(NNC(=S)Nc1cccc([N+](=O)[O-])c1)c1ccncc1 [Compound 27, 2-Isonicotinoyl-N-(3-nitrophenyl) hydrazinecarbothioamide] | – | – | Inactive | – | Urease Inhibition Activity IC50 ± SEM (urease [2]; [9]): Insoluble^d; IC50 [5]: > 30 µM
27 | CC(C)Cc1ccc(C(C)C(=O)O)cc1 (stereo not shown) [Ibuprofen, reference compound] | – | – | – | – | Anti-Inflammatory Activity IC50 ± SD (reported) [6]: 12.97 ± 0.23 µg/mL; IC50 [3]: 11.2 ± 1.9 µg/mL (≈ 54.3 µM)
28 | NNC(=O)c1ccncc1 [Isoniazid(1), Isoniazid] | – | – | Inactive | – | IC50 [7]: 28.5 ± 1.2 µM; Urease Inhibition Activity IC50 ± SEM (urease [2]; [9]): Inactive
